# Read-outs that look alike come from different tables or passages of the source.
# How the values were obtained:
# [1] = tested on: Bay seeds extractable C12-preferring acyl-ACP thioesterase and lauroyl-CoA hydrolysis activity; experiment: Extractable hydrolysis activity at two stages of Bay seed development; format: biochemical, Umbellularia californica; conditions: cpm ether-extractable radioactivity
# Method: (§1) To assay for C12 thioesterase activity the following mixture is incubated at 30° for 30 min: "buffer" comprising 7mM KH2PO4-KOH pH 8, 20% v/v glycerol, 1mM dithiothreitol (DTT), 0.1% v/v Triton X100; sample to be tested for activity in the same or similar buffer as the "extraction buffer" described in Example 2; and 5µl of ^14C-radiolabeled lauroyl-ACP substrate for a total volume of 100µl and final lauroyl-ACP concentration of 0.5µM. Lauroyl-ACP substrate is prepared according to the method of Rock et al (Methods in Enzymology (1981) 72:397-403), using ACP prepared from Escherichia coli by the method of Rock and Cronan (Methods in Enzymology (1981) 71:341-351). The laurate is radiolabeled in the carboxylate group at a specific radioactivity of 50-60µCi/µmol.
# (§2) The reaction is stopped by adding 0.5ml cold (0°) 10% v/v acetic acid. The fatty acid product of the hydrolytic enzyme action is extracted away from the unhydrolyzed substrate by adding 1ml diethyl ether and mixing vigorously. After settling for a few minutes the upper ether layer is transferred to 5ml scintillation fluid for determination of radioactivity by liquid scintillation spectrometry. Additional ether extractions may be performed to recover remaining traces of the reaction product for more accurate quantitation of the enzyme activity if desired. The amount of ether-extracted radioactivity is a direct measure of C12-preferring acyl-ACP thioesterase activity, provided the amount of enzyme is not sufficient to hydrolyze more than about 25% of the substrate. With greater activity than this the relationship between radioactivity in the ether layer and the quantity of enzyme becomes markedly nonlinear. The enzyme preparation must then be diluted appropriately to bring the activity into the linear range of the assay.
# Further evidence that the C12-preferring acyl-ACP thioesterase is involved in the biosynthesis of laurate groups that predominate in the Bay seeds comes from a comparison of the extractable activity of the enzyme at two different stages of seed development. As shown in the following table, Table 5, very young seeds, which contain only long-chain fatty acids and insignificant amounts of laurate, yield much less C12-preferring ACP thioesterase than older seeds that have accumulated significant amounts of laurate. Thus it appears that significant activity of this enzyme is only present when the seeds are accumulating laurate. Additionally, there appears to be much less difference in lauroyl-CoA hydrolysis activity, consistent with their being different enzymes as discussed above in Example 5.
# [2] = target: T1, Bay C12-preferring acyl-ACP thioesterase (Umbellularia californica, UniProt Q41635); experiment: Substrate hydrolysis (ACP versus CoA) by peak gradient-eluted fraction of the ACP column; format: biochemical; set-up: This comprises the source tissue for enzyme extraction; from tissue; host or cells: cotyledons of immature Umbellularia californica seeds; conditions: cpm of ether-extractable product
# T1 sequence (Q41635 84-382): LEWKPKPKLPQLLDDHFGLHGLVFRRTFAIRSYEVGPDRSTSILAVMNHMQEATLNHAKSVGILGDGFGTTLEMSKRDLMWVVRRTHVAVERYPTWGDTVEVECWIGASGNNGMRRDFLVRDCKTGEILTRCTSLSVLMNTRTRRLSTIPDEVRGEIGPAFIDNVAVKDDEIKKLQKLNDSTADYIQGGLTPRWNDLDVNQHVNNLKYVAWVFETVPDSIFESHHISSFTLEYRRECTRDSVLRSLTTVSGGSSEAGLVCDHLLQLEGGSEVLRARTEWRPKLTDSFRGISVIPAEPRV
# Method: as §1
# (§3) The reaction is stopped by adding 0.5ml cold (0°) 10% v/v acetic acid. […] After settling for a few minutes the upper ether layer is transferred to 5ml scintillation fluid for determination of radioactivity by liquid scintillation spectrometry. Additional ether extractions may be performed to recover remaining traces of the reaction product for more accurate quantitation of the enzyme activity if desired. The amount of ether-extracted radioactivity is a direct measure of C12-preferring acyl-ACP thioesterase activity, provided the amount of enzyme is not sufficient to hydrolyze more than about 25% of the substrate. […]
# [3] = tested on: material which fails to bind the ACP column (Lauroyl-CoA hydrolysis activity); experiment: Substrate hydrolysis (ACP versus CoA) by peak unbound fraction of the ACP column; format: biochemical, Umbellularia californica; conditions: Flow-through (nonbinding) fraction; cpm of ether-extractable product
# Method: as §1, §3
# [4] = tested on: Cuphea C10-preferring acyl-ACP thioesterase; experiment: C10 acyl-ACP thioesterase inhibitor studies, material from Example 9A; format: biochemical, Cuphea hookeriana; conditions: preliminary inhibitor studies; for sensitivity of the thioesterase to the inhibitor (in words): concentration not given
# Method: Following the same general procedures as outlined in Example 1, to assay for C10 thioesterase activity, the following mixture is incubated at 30° for 10-60 min: 50µl sample to be tested in the same or similar "extraction buffer" described in Example 9A, and approximately 250pmol of [^14C]-radiolabeled acyl-ACP substrate, (usually decanoyl-ACP is labeled in the carboxylate group to 50-60µCi/µmol) in a total volume of […], for a final decanoyl-ACP concentration of 0.5-5.0µM, typically 5.0µM. The reaction is stopped by adding 0.5ml 10% (v/v) cold (4°) acetic acid and placing the reaction mixture on ice for a few minutes. The fatty acid product of the hydrolytic enzyme action is extracted away from the unhydrolyzed substrate by adding 2ml diethyl ether and mixing vigorously. The ether is transferred to 5ml scintillation fluid for scintillation counting. Additional ether extracts may be performed to recover remaining traces of product for more accurate quantitation of the activity if desired.
# An acetone powder is prepared by grinding the seeds to a powder in a mortar and pestle under liquid nitrogen, and then grinding the powder in a mortar and pestle with cold acetone (at approximately -20°). The powder is collected by filtration and rinsed with cold ether to remove remaining traces of acetone. It is then extracted with 10ml of "extraction buffer" per gram of acetone powder weight (this and all subsequent steps at 0-4°) comprising 50mM KH2PO4-KOH pH 7.5, 10mM 2-mercaptoethanol. The homogenate is centrifuged at 11,000xg for 15 min at 4°, and the supernatant fraction used for subsequent purification steps after filtration through two layers of Miracloth (Calbiochem. Inc.; LaJolla, CA).
# The supernatant fraction is then subjected to ammonium sulfate fractionation. The 40-60% saturation ammonium sulfate pellet (prepared as described in Example 2) is redissolved in "buffer" comprising 50mM KH2PO4-KOH pH 6.9, 10% (v/v) glycerol, and 10mM 2-mercaptoethanol, and dialyzed against this buffer to remove remaining ammonium sulfate. […]
# [5] = target: T2, Bay cotyledon C12-preferring acyl-ACP thioesterase (Umbellularia californica, UniProt Q41635); experiment: C12-preferring acyl-ACP thioesterase inhibitor studies, Bay ammonium sulfate fraction; format: biochemical; conditions: for inhibition at 500 µM / inhibition at 5000 µM: read-out: Percent Inhibition; for sensitivity of the thioesterase to the thiol reagent (in words): 5mM, preliminary inhibitor studies
# T2 construct: This comprises the source tissue for enzyme extraction; from tissue; host or cells: cotyledons of immature Umbellularia californica seeds
# T2 sequence (Q41635 84-382): T1 sequence (Q41635 84-382)
# Method: as §1, §2
# The crude extract is subjected to ammonium sulfate fractionation as follows. Sufficient solid ammonium sulfate is gradually added with stirring over 30 min to achieve 70% saturation. The preparation is then stirred for a further 30 min. After centrifuging as described above, the pelleted material is resuspended in extraction buffer (2ml/g original tissue weight) and stirred for 10 min until dissolved. Ammonium sulfate is then added as before, but this time only sufficient to achieve 50% saturation. After centrifuging as before, the supernatant fraction is discarded. The pelleted material, which contains the C12-preferring acyl-ACP thioesterase, may be frozen by immersion in liquid nitrogen and then stored at -70° at this stage if desired. The resulting material is referred to as the "ammonium sulfate fraction." Very little of the C12-preferring acyl-ACP thioesterase activity is lost if the pellet is frozen very rapidly.
# Table 1 below reports inhibition of Bay cotyledon C12-preferring acyl-ACP thioesterase by thiol reagents observed when an ammonium sulfate fraction (see, Example 2) was assayed (see, Example 1).
# After removal of dithiothreitol from an ammonium sulfate fraction preparation by passage through a small. column of G25-50 gel filtration medium (Pharmacia, Piscataway, NJ) the following assay results were observed.
# [6] = 0.5mM added to assay, mean of duplicates, ether layer, control without addition 4322
# [7] = 5mM added to assay, after removal of dithiothreitol by G25-50 gel filtration, control 3776
# [8] = 5mM added to assay, after removal of dithiothreitol by G25-50 gel filtration
# [9] = 5mM added to assay, mean of duplicates, ether layer, control without addition 4322
Compound,Hydrolysis / Thioesterase Activity In Assays ([1]; Normal Seeds (2g/cotyledon pair)),Hydrolysis / Thioesterase Activity In Assays ([1]; Young Seeds (0.5g/cotyledon pair)),Activity on Substrate [2],Activity on Substrate [3],inhibition of the thioesterase (in words) ([4]; 5mM),"Mean Activity [5, 6]",inhibition at 500 µM ([5]; 0.5mM added to assay),"Mean Activity [5, 7]","inhibition at 5000 µM [5, 8]","Mean Activity [5, 9]",inhibition at 5000 µM ([5]; 5mM added to assay),sensitivity of the thioesterase to the thiol reagent (in words) [5],sensitivity of the thioesterase to the inhibitor (in words) [4]
"CCCCCCCCCCCC(=O)SCCNC(=O)CCNC(=O)[C@H](O)C(C)(C)COP(=O)(O)OP(=O)(O)OC[C@H]1O[C@@H](n2cnc3c(N)ncnc32)[C@H](O)[C@@H]1OP(=O)(O)O [C12-CoA, lauroyl coenzyme A]","31,268 cpm","29,995 cpm",27 cpm,10808 cpm,,,,,,,,,
CCN1C(=O)C=CC1=O [N-ethylmaleimide],,,,,completely inhibited,4320 cpm,0%,269 cpm,93%,103 cpm,98%,almost completely inhibited,
NC(=O)CI [iodoacetamide],,,,,,4180 cpm,3%,3851 cpm,0%,4047 cpm,6%,insensitive,insensitive
O=S(=O)(F)Cc1ccccc1 [phenylmethylsulfonyl fluoride],,,,,,,,,,,,,insensitive

# From patent EP1298214A2, “Plant thioesterases” (Calgene LLC, priority 1990, dated 1991)
